Key:
Format in all cases: cell-based
[1] = target: T1, human EGFR exon 20 H773_V774insNPH (Homo sapiens, UniProt P00533, INS773NPH); assay: EGFR Exon20 NPH insertion cellular phosphorylation inhibition (MSD pEGFR Y1068/total EGFR); details: Ba/F3 EGFR NPH ins cells, 4 h compound, p-EGFR(Y1068)/total EGFR;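 further: IL3-independent Ba/F3 cells with constitutively phosphorylated EGFR, compound exposure at 37 °C under 5% CO2, electrochemiluminescent MSD measurement of the p-EGFR to total EGFR ratio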
T1 construct: host or cells: Ba/F3

[2] = target: T2, human EGFR exon 20 V769_D770insASV (Homo sapiens, UniProt P00533, INS769ASV); assay: EGFR Exon20 ASV insertion cellular phosphorylation inhibition (MSD pEGFR Y1068/total EGFR); details: Ba/F3 EGFR ASV ins cells, 4 h compound, p-EGFR(Y1068)/total EGFR;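 further: electrochemiluminescent readout on an MSD SECTOR Imager, IL3-independent transduced cells in medium with 1% FBS, compound concentration series at 37 °C and 5% CO2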
T2 construct: expressed in transfected cells; host or cells: Ba/F3 (DSMZ ACC-300), lentiviral transduction, puromycin selection, IL3 depletion

EGFR L858R&T790M = target: T3, EGFR L858R&T790M (Homo sapiens, UniProt P00533, L858R/T790M); assay: EGFR L858R and T790M cellular phosphorylation inhibition in NCI-H1975 (MSD); details: NCI-H1975 cells, 4 h compound, p-EGFR(Y1068)/total EGFR; read-out: EGFR L858R and T790M mutation IC50;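 further: phosphorylated and total EGFR detected by electrochemiluminescence, cells exposed to compound in medium containing 1% FBS at 37 °C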
T3 construct: host or cells: NCI-H1975

[3] = target: T4, human Her2 exon 20 insertion mutation YVMA (Homo sapiens, UniProt P04626, INS775YVMA); assay: Her2 Exon 20 YVMA insertion cellular phosphorylation inhibition (MSD p-Her2 Y1248/total Her2); details: Her2 YVMAins cells, 4 h compound;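 further: lentivirally transduced NIH-3T3 cells in 1% FBS medium, electrochemiluminescent MSD read-out, graded compound concentrations at 37 °C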
T4 construct: expressed in transfected cells; host or cells: NIH-3T3, lentiviral transduction, puromycin selection

WT EGFR = target: T5, WT EGFR (Homo sapiens, UniProt P00533); assay: WT EGFR cellular phosphorylation inhibition in A-431 (hEGF stimulated, MSD); details: A431 cells, 4 h compound, then 100 ng/ml hEGF 10 min;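 further: electrochemiluminescence read-out of EGFR Tyr1068 phosphorylation expressed as ratio to total EGFR, cells kept in medium with 1% FBS, compounds tested as a concentration series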
T5 construct: host or cells: A-431

Ba/F3 EGFR NPH ins cells = assay: Cell proliferation, Ba/F3 EGFR NPH ins (CellTiter-Glo, 72 h); details: Ba/F3 EGFR, 72 h, Ba/F3 EGFR NPH ins, 72 h proliferation; read-out: EGFR Exon20 NPH insertion GI50;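 further: IL3-independent cells carrying constitutively phosphorylated EGFR, compound dilution series, viable cells quantified by ATP luminescence, growth relative to DMSO wells after subtracting pre-dosing (day 0) baseline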
Method: Similar to recombinant human EGFR exon 20 H769_V770insASV Ba/F3 cell line, the recombinant human EGFR exon 20 H773_V774insNPH Ba/F3 cell line also expresses constitutively phosphorylated EGFR protein and proliferates in the absence of IL3, which could be used for in vitro PD and anti-proliferation assays.
(§1) WT or mutant cells were seeded in 384 well plates at appropriate concentrations with corresponding growth media supplemented with 10% FBS, for each experiment, identical plates were prepared in duplicates, and the plates were incubated overnight. On the next day, one of each duplicated plates was dosed with tested compounds at a series of concentrations, and another one of the duplicated plate was analysied for G0 value. The dosed plates were incubate for another 72 h at 37° C. with 5% CO2 and the number of viable cells in each well of the G0 plates or the dosed plates were measured by CellTiter-Glo® Luminescent Cell Viability Assay (Promega). This assay is a luminescent method for determining the number viable cells through measurement of cellular ATP concentration by detection of luciferase activity. Detection reagents (15 µl) was dispensed into per well, and the plates were incubate for 30 min at room temperature. Then, the luminescence in each well was measured using the Envision plate reader (PerkinElmer). The percentage of proliferation was calculated based on the formula: %Proliferation= 100 × (G3 value of sample well-Go value)/(G3 value of DMSO control-Go value).

Ba/F3 EGFR ASV ins cells = assay: Cell proliferation, Ba/F3 EGFR ASV ins (CellTiter-Glo, 72 h); details: Ba/F3 EGFR, 72 h, Ba/F3 EGFR ASV ins, 72 h proliferation; read-out: EGFR Exon20 ASV insertion GI50;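 further: IL3-independent Ba/F3 cells transduced with EGFR V769_D770insASV, cellular ATP luminescence after compound exposure, growth relative to DMSO control with the day-0 baseline reading subtracted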
[4] = test system: NCI-H1975 EGFR L858R/T790M cells; assay: Cell proliferation, NCI-H1975 EGFR L858R/T790M (CellTiter-Glo, 72 h); details: Homo sapiens, NCI-H1975, 72 h, NCI-H1975, 72 h proliferation; read-out: EGFR L858R and T790M mutation GI50;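 further: viable cells quantified by luciferase-based ATP luminescence, proliferation expressed relative to DMSO-treated wells (100%) after subtracting a parallel plate read at the time of dosing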
[5] = test system: Her2 exon 20 insertion YVMA transduced NIH-3T3 cell line; assay: Cell proliferation, Her2 YVMAins NIH-3T3 (CellTiter-Glo, 72 h); details: Mus musculus, NIH3T3, 72 h, Her2 YVMAins cells, 72 h proliferation; read-out: Her2 Exon 20 YVMA insertion GI50;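 further: viable cells quantified by ATP luminescence, growth over a day-zero baseline plate expressed as percent of DMSO control growth, compound dilution series in 10% FBS medium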
WT EGFR cell line A-431 = assay: Cell proliferation, WT EGFR A431 (CellTiter-Glo, 72 h); details: Homo sapiens, A-431, 72 h, A431, 72 h proliferation; read-out: EGFR WT A431 GI50;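 further: proliferation from a luminescent ATP viability signal, expressed as 100 × (treated minus time-zero plate) over (DMSO control minus time-zero plate), cells grown with 10% FBS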
Method: as §1

OCI-LY-10 cells = assay: BTK (wt) cell proliferation, OCI-LY-10 (CellTiter-Glo, 72 h); details: Homo sapiens, OCI-Ly10, 72 h, OCI-LY-10 cells, 72 h, CellTiter-Glo; read-out: BTK WT OCI-LY-10 GI50;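 further: viable cells quantified via cellular ATP luminescence, proliferation given as percent of DMSO control after subtracting a duplicate plate read at time of dosing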
TMD-8 cells = assay: BTK (wt) cell proliferation, TMD-8 (CellTiter-Glo, 72 h); details: Homo sapiens, TMD8, 72 h, TMD-8 cells, 72 h, CellTiter-Glo; read-out: BTK WT TMD-8 GI50;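 further: viable cells quantified by ATP-based luminescence, proliferation expressed as percent of DMSO control after subtracting a time-zero baseline plate read at dosing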
Ri-1 cells = assay: BTK (wt) cell proliferation, Ri-1 (CellTiter-Glo, 72 h); details: Ri-1, 72 h, Ri-1 cells, 72 h, CellTiter-Glo; read-out: BTK WT Ri-1 GI50;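 further: viable cells quantified as cellular ATP luminescence, proliferation normalized to a time-zero plate and the DMSO control, compounds tested across a dilution series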
DB cells = assay: BTK (wt) cell proliferation, DB (CellTiter-Glo, 72 h); details: Homo sapiens, DB, DB cells, CellTiter-Glo, read-out: Non-BCR activated DB GI50;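 further: DB cells in 384-well plates given a dilution series of compound, viable cells read by ATP luminescence, growth expressed versus DMSO control after subtracting a time-zero plate reading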
Method: OCI-LY-10 at 3,750 cells/well, TMD-8 and Ri-1 at 2,000 cells/well, and DB at 1,250 cells/well, respectively, were sorted into 384-well plates in RPMI1640 medium with 10% FBS. After overnight incubation, all cells were incubated with compound at a series of concentrations. Meanwhile, a duplicated plate of each cell line was prepared for measuring G0 value. The dosed plates were further incubated for 72 hours and the number of viable cells was measured by CellTiter-Glo® Luminescent Cell Viability Assay (Promega), a luminescent method for determining the number of viable cells through measurement of cellular ATP concentration using Envision plate reader (PerkinElmer). The percentage of proliferation was calculated as: % Proliferation = 100 × (G3 value of sample well - G0 value)/(G3 value of DMSO control - G0 value).

T4 sequence (P04626 with tags, fused parts or gaps INS775YVMA): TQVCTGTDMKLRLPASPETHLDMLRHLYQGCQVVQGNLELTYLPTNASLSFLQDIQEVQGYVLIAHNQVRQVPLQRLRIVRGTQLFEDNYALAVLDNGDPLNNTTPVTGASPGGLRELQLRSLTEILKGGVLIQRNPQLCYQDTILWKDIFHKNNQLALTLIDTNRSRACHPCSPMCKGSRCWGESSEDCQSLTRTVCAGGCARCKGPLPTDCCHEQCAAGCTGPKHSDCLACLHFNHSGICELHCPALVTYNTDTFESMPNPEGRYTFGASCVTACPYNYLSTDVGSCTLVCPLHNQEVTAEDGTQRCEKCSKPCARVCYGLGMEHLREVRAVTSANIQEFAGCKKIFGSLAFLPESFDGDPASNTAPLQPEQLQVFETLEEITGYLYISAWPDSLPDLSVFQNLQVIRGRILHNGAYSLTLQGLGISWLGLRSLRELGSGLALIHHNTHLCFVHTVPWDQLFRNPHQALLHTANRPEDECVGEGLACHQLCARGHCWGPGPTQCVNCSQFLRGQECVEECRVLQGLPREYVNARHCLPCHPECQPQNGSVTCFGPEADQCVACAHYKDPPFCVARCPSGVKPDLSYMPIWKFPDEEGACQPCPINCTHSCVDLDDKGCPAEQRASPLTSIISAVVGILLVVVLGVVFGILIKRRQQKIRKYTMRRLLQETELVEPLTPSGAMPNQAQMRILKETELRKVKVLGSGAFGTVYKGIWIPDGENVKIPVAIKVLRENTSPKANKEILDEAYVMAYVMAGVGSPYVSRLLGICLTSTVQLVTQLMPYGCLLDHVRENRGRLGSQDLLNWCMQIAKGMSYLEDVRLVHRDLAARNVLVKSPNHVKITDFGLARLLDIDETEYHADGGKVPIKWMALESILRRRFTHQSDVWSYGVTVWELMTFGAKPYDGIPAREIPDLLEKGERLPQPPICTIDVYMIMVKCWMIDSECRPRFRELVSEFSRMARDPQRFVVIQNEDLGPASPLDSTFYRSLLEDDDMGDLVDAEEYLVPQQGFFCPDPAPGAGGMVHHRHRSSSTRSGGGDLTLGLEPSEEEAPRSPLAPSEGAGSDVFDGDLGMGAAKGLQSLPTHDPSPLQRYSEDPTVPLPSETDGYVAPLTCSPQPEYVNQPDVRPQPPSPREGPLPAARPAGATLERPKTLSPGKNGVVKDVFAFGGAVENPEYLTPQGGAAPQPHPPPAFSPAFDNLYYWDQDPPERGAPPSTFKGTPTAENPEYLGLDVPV
T3 sequence (P00533 25-1210 T790M/L858R): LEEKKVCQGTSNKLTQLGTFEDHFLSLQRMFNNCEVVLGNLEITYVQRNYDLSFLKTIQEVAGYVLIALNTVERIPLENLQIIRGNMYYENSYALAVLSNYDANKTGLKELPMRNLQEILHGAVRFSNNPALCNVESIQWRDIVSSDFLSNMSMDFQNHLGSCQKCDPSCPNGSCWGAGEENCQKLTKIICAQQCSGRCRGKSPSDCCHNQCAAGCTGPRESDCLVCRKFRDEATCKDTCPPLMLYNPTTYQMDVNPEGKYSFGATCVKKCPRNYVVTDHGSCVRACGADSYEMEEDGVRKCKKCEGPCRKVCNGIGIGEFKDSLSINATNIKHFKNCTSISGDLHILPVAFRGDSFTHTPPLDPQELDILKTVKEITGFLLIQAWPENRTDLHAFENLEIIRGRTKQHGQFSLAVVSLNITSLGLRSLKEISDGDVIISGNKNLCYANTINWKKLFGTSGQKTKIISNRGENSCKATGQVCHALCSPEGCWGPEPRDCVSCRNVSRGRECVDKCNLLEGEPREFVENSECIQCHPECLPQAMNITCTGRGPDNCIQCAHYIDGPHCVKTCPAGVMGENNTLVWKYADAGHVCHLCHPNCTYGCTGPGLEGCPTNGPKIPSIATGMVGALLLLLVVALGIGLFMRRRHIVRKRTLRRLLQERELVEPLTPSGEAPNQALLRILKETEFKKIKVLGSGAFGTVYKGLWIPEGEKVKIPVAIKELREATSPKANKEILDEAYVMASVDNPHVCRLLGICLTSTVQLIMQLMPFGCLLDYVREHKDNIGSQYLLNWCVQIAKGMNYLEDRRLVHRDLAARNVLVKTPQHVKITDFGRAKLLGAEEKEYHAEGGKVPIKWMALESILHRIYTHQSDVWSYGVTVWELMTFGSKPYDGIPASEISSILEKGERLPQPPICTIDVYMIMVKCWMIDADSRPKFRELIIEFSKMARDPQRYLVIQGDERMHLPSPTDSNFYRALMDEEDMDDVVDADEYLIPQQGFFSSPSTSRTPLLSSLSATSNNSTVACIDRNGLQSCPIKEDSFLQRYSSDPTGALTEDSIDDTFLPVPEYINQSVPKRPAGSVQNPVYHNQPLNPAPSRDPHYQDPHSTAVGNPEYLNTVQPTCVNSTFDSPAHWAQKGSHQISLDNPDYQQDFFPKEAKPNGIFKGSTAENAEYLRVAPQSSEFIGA
T2 sequence (P00533 with tags, fused parts or gaps INS769ASV): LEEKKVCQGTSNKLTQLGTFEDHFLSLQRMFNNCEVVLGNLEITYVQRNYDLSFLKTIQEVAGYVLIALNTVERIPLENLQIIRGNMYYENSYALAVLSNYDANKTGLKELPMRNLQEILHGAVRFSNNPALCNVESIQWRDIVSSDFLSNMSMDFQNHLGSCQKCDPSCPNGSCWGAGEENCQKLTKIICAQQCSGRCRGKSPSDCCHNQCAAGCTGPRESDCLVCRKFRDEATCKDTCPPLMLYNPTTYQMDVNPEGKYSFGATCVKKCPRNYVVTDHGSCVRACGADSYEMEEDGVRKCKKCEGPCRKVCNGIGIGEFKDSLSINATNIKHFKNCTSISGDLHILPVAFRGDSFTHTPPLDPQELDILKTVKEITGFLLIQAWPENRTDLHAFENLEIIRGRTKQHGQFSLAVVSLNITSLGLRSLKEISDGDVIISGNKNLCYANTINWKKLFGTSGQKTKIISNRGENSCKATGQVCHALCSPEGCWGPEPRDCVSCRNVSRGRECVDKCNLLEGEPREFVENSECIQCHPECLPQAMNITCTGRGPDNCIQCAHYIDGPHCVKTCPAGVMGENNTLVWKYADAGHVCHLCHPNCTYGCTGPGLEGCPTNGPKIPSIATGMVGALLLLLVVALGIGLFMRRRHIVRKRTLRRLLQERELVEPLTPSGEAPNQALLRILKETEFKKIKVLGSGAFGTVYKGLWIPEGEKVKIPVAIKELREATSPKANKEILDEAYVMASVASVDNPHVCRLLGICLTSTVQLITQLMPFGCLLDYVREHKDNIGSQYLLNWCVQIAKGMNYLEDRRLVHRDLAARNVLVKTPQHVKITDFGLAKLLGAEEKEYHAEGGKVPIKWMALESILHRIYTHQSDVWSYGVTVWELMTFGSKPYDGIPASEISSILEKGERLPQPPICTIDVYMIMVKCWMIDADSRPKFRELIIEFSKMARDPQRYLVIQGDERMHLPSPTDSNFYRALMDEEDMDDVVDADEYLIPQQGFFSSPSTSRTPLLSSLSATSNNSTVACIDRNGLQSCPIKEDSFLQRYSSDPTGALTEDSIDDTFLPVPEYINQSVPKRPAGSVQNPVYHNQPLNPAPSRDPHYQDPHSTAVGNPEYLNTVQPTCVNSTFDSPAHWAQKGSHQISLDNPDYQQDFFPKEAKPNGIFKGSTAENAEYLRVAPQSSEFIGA
T5 sequence (P00533 25-1210): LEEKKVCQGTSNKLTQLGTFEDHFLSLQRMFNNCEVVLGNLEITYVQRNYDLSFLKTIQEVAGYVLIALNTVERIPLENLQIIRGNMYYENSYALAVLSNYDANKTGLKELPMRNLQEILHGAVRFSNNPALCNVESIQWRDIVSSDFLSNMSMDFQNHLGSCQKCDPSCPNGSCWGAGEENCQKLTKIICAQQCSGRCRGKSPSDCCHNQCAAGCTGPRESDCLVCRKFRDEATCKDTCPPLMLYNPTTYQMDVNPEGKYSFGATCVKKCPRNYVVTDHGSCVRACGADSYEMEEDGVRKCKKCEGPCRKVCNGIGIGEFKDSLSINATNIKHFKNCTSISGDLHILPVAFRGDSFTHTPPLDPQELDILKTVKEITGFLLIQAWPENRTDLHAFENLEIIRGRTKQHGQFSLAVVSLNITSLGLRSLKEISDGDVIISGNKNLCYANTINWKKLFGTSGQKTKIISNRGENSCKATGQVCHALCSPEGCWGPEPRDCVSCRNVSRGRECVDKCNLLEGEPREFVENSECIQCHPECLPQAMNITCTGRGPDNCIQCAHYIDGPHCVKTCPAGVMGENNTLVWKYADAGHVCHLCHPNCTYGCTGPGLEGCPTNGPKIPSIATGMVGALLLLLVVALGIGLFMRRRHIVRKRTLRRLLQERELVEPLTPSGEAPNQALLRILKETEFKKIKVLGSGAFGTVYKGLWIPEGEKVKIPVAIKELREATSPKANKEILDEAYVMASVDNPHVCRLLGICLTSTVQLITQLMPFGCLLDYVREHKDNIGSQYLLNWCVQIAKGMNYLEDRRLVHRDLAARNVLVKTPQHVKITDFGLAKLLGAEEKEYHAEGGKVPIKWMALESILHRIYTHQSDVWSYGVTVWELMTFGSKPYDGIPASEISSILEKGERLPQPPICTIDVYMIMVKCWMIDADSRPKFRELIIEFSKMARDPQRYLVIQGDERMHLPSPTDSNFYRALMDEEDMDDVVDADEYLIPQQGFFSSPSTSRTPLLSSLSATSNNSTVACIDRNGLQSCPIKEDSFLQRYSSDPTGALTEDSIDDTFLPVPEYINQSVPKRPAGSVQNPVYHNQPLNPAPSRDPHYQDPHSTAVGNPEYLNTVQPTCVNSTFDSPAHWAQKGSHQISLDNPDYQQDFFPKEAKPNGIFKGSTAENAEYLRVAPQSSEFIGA

Compound | IC50 [1] [nM] | IC50 [2] [nM] | IC50 (EGFR L858R&T790M) [nM] | IC50 [3] [nM] | IC50 (WT EGFR) [nM] | GI50 (Ba/F3 EGFR NPH ins cells) [nM] | GI50 (Ba/F3 EGFR ASV ins cells) [nM] | GI50 [4] [nM] | GI50 [5] [nM] | GI50 (WT EGFR cell line A-431) [nM] | GI50 (OCI-LY-10 cells) [nM] | GI50 (TMD-8 cells) [nM] | GI50 (Ri-1 cells) [nM] | GI50 (DB cells) [nM]
C=CC(=O)Nc1cc(Nc2ncnc(Nc3cc(F)c(F)cc3C(C)(O)CC)n2)c(OC)cc1N1CCC[C@H]1CN(C)C (stereo partly drawn) [Compound 58, N-(5-(4-(4,5-difluoro-2-(2-hydroxybutan-2-yl)phenylamino)-1,3,5-triazin-2-ylamino)-2-((S)-2-((dimethylamino)methyl)pyrrolidin-1-yl)-4-methoxyphenyl)acrylamide] | 297 | 77.3 | 3.6 | 117 | 627 | 210 | 251 | 13.1 | 553 | 178 | 320 | 262 | 372 | > 3000
C=CC(=O)Nc1cc(Nc2ncc(C(F)(F)F)c(Nc3cc(Cl)c(F)cc3C(C)(C)O)n2)c(OC)cc1N1CC[C@@H](N(C)C)C1 [Compound 84, (R)-N-(5-(4-(5-chloro-4-fluoro-2-(2-hydroxypropan-2-yl)phenylamino)-5-(trifluoromethyl)pyrimidin-2-ylamino)-2-(3-(dimethylamino)pyrrolidin-1-yl)-4-methoxyphenyl)acrylamide] | 259 | 116 | 0.4 | 1560 | 604 | 191 | 450 | 19.1 | 341 | 232 | 31.2 | 39.8 | 137 | > 3000
C=CC(=O)Nc1cc(Nc2ncnc(Nc3cc(F)c(F)cc3C(C)(C)O)n2)c(OC)cc1N1CC[C@@H]2CN(C)C[C@@H]21 [Compound 17, N-(5-(4-(4,5-difluoro-2-(2-hydroxypropan-2-yl)phenylamino)-1,3,5-triazin-2-ylamino)-4-methoxy-2-((3aR,6aR)-5-methylhexahydropyrrolo[3,4-b]pyrrol-1(2H)-yl)phenyl) acrylamide] | 13 | 7.8 | 0.3 | 6.1 | 13.5 | 25 | 19.6 | 3.7 | 37.7 | 13.2 | 41.5 | 53.7 | 28 | > 3000
C=CC(=O)Nc1cc(Nc2ncnc(Nc3cc(Cl)c(F)cc3C(C)(O)CC)n2)c(OC)cc1N1CC[C@@H]1CN(C)C (stereo partly drawn) [Compound 56, N-(5-(4-(5-chloro-4-fluoro-2-(2-hydroxybutan-2-yl)phenylamino)-1,3,5-triazin-2-ylamino)-2-((R)-2-((dimethylamino)methyl)azetidin-1-yl)-4-methoxyphenyl)acrylamide] | 17.8 | 15.5 | 1 | 7.8 | 35.4 | 63.8 | 45.1 | 4.2 | 76.6 | 14.3 | 14.6 | 7.07 | 13.4 | > 3000
C=CC(=O)Nc1cc(Nc2ncnc(Nc3cc(F)c(Cl)c(F)c3C(C)(C)O)n2)c(OC)cc1N(C)CCN(C)C [Compound 16, N-(5-(4-(4-chloro-3,5-difluoro-2-(2-hydroxypropan-2-yl)phenylamino)-1,3,5-triazin-2-ylamino)-2-((2-(dimethylamino)ethyl)(methyl)amino)-4-methoxyphenyl)acrylamide] | 36 | 35.1 | 0.9 | 16.5 | 47.6 | 81.3 | 114 | 33.4 | 73.4 | 52.6 | 250 | 118 | 334 | > 3000
C=CC(=O)Nc1cc(Nc2ncnc(Nc3cc(Cl)c(F)cc3C(C)(C)O)n2)c(OC)cc1N1CC[C@H](N(C)C)C1 [Compound 60, (S)-N-(5-(4-(5-chloro-4-fluoro-2-(2-hydroxypropan-2-yl)phenylamino)-1,3,5-triazin-2-ylamino)-2-(3-(dimethylamino)pyrrolidin-1-yl)-4-methoxyphenyl)acrylamide] | 28.9 | 22.3 | 1.3 | 11.6 | 50.7 | 48.6 | 76.3 | 2.5 | 102 | 25 | 13.5 | 11.5 | 38.9 | > 3000
C=CC(=O)Nc1cc(Nc2ncnc(Nc3cccnc3C(C)(C)O)n2)c(OC)cc1N(C)CCN(C)C [Compound 8, N-(2-((2-(dimethylamino)ethyl)(methyl)amino)-5-(4-(2-(2-hydroxypropan-2-yl)pyridin-3-ylamino)-1,3,5-triazin-2-ylamino)-4-methoxyphenyl)acrylamide] | 91.1 | 117 | 2.9 | 25.7 | 43.1 | 258 | 250 | 32.4 | 353 | 99.8 | 88 | 1780 | > 3000 | > 3000
C=CC(=O)Nc1cc(Nc2ncc(Cl)c(Nc3cc(Cl)c(F)cc3C(C)(C)O)n2)c(OC)cc1N1CC[C@@H](N(C)C)C1 [Compound 74, (R)-N-(5-(5-chloro-4-(5-chloro-4-fluoro-2-(2-hydroxypropan-2-yl)phenylamino)pyrimidin-2-ylamino)-2-(3-(dimethylamino)pyrrolidin-1-yl)-4-methoxyphenyl) acrylamide] | 65.1 | 34.4 | 0.4 | 52.6 | 133 | 76.8 | 86.6 | 6 | 155 | 43 | 3.9 | 9.1 | 82 | > 3000
C=CC(=O)Nc1cc(Nc2ncnc(Nc3cc(F)c(Cl)cc3C(C)(C)O)n2)c(OC)cc1N(C)CCN(C)C [Compound 12, N-(5-(4-(4-chloro-5-fluoro-2-(2-hydroxypropan-2-yl)phenylamino)-1,3,5-triazin-2-ylamino)-2-((2-(dimethylamino)ethyl)(methyl)amino)-4-methoxyphenyl)acrylamide] | 10.8 | 6.4 | 0.3 | 3.4 | 7.6 | 21.5 | 25.3 | 8.4 | 24.5 | 14.2 | 27.8 | 34.5 | 51.2 | > 3000
C=CC(=O)Nc1cc(Nc2ncnc(Nc3cc(F)c(F)cc3C(C)(O)CC)n2)c(OC)cc1N(C)CCN(C)C (centres unmarked) [Compound 49, N-(5-(4-(4,5-difluoro-2-(2-hydroxybutan-2-yl)phenylamino)-1,3,5-triazin-2-ylamino)-2-((2-(dimethylamino)ethyl)(methyl)amino)-4-methoxyphenyl)acr ylamide] | 19.6 | 9.6 | 0.5 | 6.2 | 22.8 | 31.6 | 31.9 | 1.5 | 36.1 | 15.3 | 1250 | 107 | 566 | > 3000
